Experimental data: patent US12098407B2, “Methods for decoupling yield and productivity of a non-catabolic compound produced by a host cell” (AMYRIS, INC., priority 2019, dated 2024)
Like-named read-outs stand apart in the source and are kept apart here.

How the values were obtained:
[1] = system: biomass yield; assay: Concentration of weak organic acid required to reduce the biomass yield to 50% of the reference condition; assay type: cell-based; details: concentration required to reduce the biomass yield to 50% of the reference condition
[2] = target: HMGR from E. faecalis (Enterococcus faecalis, UniProt Q9FD70); details: class II HMGR, source E. faecalis; read-out: Km^NADPH; cited from earlier work
[3] = target: T1, HMGR from A. fulgidus (Archaeoglobus fulgidus, UniProt O28538); details: class II HMGR, source A. fulgidus, cited from earlier work
T1 sequence (O28538 1-436): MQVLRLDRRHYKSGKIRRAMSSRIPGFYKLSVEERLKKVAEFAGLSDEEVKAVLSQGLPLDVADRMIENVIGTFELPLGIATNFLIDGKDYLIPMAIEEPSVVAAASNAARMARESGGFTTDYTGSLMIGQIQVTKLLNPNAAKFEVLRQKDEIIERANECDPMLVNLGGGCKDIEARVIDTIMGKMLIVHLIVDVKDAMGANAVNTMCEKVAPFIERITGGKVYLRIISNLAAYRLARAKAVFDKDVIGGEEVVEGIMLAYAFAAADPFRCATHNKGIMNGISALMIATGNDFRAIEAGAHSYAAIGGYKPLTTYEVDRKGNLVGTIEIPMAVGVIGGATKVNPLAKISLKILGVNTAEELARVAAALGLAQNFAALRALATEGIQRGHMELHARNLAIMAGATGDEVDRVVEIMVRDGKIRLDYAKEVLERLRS

[4] = system: HMGR from S. aureus; details: class II HMGR, source S. aureus, cited from earlier work
[5] = system: farnesene-producing strain; assay: Farnesene-producing strain treated with different concentrations of benzoic acid; assay type: cell-based; details: FIG. 8
Experimental: Benzoic acid can be used to deplete ATP in the cell by forcing the cells to use ATP to pump out excess protons that are moved into the cytoplasm by the benzoyl […]. […] The yield (qP/qS) was calculated from measured specific sugar uptake rate and specific farnesene production rate.
Single colonies were grown on CSM agar plates, then picked into sterile 96-well microtiter plates (1.1 mL working volume Axygen) containing 360 ul of defined liquid growth medium (LGM; as referenced in Example 1, Westfall et al, 2012) with 50 mM succinate (pH 5.0) and 2% sucrose+1% maltose+2 g/L lysine grown for 72 h at 28 C. […] Taking measurements of farnesene, biomass, and total residual sugar during log phase growth (at two times, T1 and T2) allows for the determination of specific productivity, growth rate, and specific sugar uptake rate. Farnesene is measured using full-well extraction with isopropanol, and quantified by UV absorbance at 220 nm with reference to a standard curve. Biomass was measured by assaying the fluorescent signal of intracellular tryptophan with an excitation wavelength of 290 nm and detection at 350 nm (UVOD). The relationship between this tryptophan signal and actual biomass is strain-dependent, and is determined empirically for each strain assayed. We do this by measuring both UVOD and biomass absorbance (OD) just prior to the start of production plates; this gives a per-well OD/UVOD conversion factor that is then used to convert UVOD signal at the end of production runs back to biomass. Another conversion we must make in determining biomass is from optical density (OD) to dry cell weight; this is also determined empirically. […] Growth rates were determined by applying a linear regression to LN (OD) vs time. Total reducing sugars was measured by using an enzymatic determination of sucrose, fructose and glucose with an output of NADH absorption read at 340 nm, as described in various commercial kits, as such those sold by Sigma Aldrich.

[6] = target: T2, HMGR from P. mevalonii (Pseudomonas mevalonii, UniProt P13702); details: class II HMGR, source P. mevalonii; read-out: Km^NADH; cited from earlier work
T2 sequence (P13702 1-428): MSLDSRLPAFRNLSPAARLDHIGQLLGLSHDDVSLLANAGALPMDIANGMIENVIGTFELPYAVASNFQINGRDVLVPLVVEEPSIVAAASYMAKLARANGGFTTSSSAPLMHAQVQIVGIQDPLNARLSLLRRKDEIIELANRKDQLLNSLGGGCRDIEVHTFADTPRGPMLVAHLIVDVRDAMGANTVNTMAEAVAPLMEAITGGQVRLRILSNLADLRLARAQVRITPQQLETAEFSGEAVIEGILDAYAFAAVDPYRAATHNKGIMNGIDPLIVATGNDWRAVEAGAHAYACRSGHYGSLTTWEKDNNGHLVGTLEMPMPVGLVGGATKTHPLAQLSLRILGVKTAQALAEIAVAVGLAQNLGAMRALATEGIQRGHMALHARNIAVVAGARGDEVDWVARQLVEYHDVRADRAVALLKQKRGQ

[7] = increasing concentrations of benzoic acid

For `C/C=C/C=C/C(=O)O` [Sorbic Acid], the YCR50 [1] was 1.3 mM.

In the case of `CC(=O)O` [Acetic Acid], the YCR50 [1] is reported as 105.0 mM.

In the case of `CCC(=O)O` [Propionic Acid], the YCR50 [1] is reported as 20.0 mM.

In the case of `NC(=O)C1=CN([C@@H]2O[C@H](COP(=O)(O)OP(=O)(O)OC[C@H]3O[C@@H](n4cnc5c(N)ncnc54)[C@H](OP(=O)(O)O)[C@@H]3O)[C@@H](O)[C@H]2O)C=CC1` [NADPH], the Km [2] is given as 30 µM, the Km ([3]; read-out: Km^NADPH) is given as 500 µM and the Km ([4]; read-out: Km^NADPH) is given as 70 µM.

In the case of `O=C(O)c1ccccc1` [Benzoic Acid], the YCR50 [1] is reported as 2.0 mM, the “calculated yield (qP/qS)” value ([5]; increased benzoic acid concentrations) is reported as “increased” and the “specific farnesene productivity (qP)” value [5, 7] is reported as “did not change and even increased a little at intermediate concentrations”. For the same compound, the “specific growth rate (mu)” value [5, 7] was “decreased linearly”.

In the case of `NC(=O)C1=CN([C@@H]2O[C@H](COP(=O)(O)OP(=O)(O)OC[C@H]3O[C@@H](n4cnc5c(N)ncnc54)[C@H](O)[C@@H]3O)[C@@H](O)[C@H]2O)C=CC1` [NADH], the Km [6] is given as 80 µM, the Km ([3]; read-out: Km^NADH) is given as 160 µM and the Km ([4]; read-out: Km^NADH) is given as 100 µM.
